pEC50: −log10 of the molar value. Like-named read-outs stand apart in the source and are kept apart here.

In series [1] the test system is murine neural precursor cells (neurosphere cultures). In words: HTS of LOPAC library against secondary neurosphere cultures, MTT proliferation assay at 3 μM, day 7 (z score, P value). The series is classed as cell-based, mouse. (In general: Formazan colour is commonly taken as a measure of viable cells.)
Series [2] deals with mouse NSC neurosphere cultures. In words: Dose-response curves and EC50, neurosphere MTT proliferation, 7 days. Type of series: cell-based.
Series [3] has as its system ptc1+/− medulloblastoma precursor cells (neurosphere cultures). In words: Medulloblastoma tumor sphere MTT proliferation EC50. Type of series: cell-based, mouse. The source says: (§1) Astrocyte Screen and Neurosphere Selectivity Assessment. […] Murine Medulloblastoma Generation and Culture. […] Flow Cytometry. […] Results
In series [4] the test system is hGBM1 precursors (WHO grade IV GBM). In words: Human glioblastoma precursor EC50 (hGBM1). The series is classed as cell-based.
Series [5] concerns hGBM2 precursors (WHO grade IV GBM, giant cell variant). In words: Human glioblastoma precursor EC50 (hGBM2). The series is classed as cell-based.
For series [6] the following is noted: cited from earlier work.
Series [7] has as its system ptc1+/− tumor cell growth. Conditions: cited from earlier work.
The test system of series [8] is Ptch1+/− Trp53−/− medulloblastoma neurosphere cultures. In words: Tumor sphere MTT proliferation EC50. Type of series: cell-based, mouse. Conditions: cultures derived from mouse cerebellar tumor samples; read-out: Ptch1+/− Trp53−/− neurosphere EC50.
Source text: as §1

For series [9], the system named is neural precursors derived from human fetal CNS tissue (hFetal). The series is described as follows: Human fetal neural precursor EC50. Type of series: cell-based.
Series [10] deals with nestin expression in NPCs. The series is described as follows: Flow cytometric analysis of nestin in NPCs. The series is classed as cell-based, mouse. For orientation: A flow cytometer gives signals particle by particle.
Protocol: (d) Flow cytometric analysis of the neural precursor marker nestin in NPCs after 2 d of treatment with ifenprodil (5 μM) or vehicle.
The subject of series [11] is NSC fraction of neurosphere cultures. As to conditions: 7 day pretreatment at estimated EC75 (apomorphine EC50); 2,000 or 1,000 cells.
Series [12] concerns medulloblastoma formation. Conditions: mice; cited from earlier work.
In a further series the test system is NPC colony formation. The series is described as follows: Inhibition of colony formation by bromocriptine with and without (±)-sulpiride. The series is classed as cell-based, mouse.
Where [13] appears, read: cultures derived from mouse cerebellar tumor samples, read-out: Ptch1+/− neurosphere EC50.
Where [14] appears, read: Table 8, read-out: Neurosphere EC50.

Source text for NPC colony formation: (e) Inhibition of colony formation by bromocriptine in cultures with and without (±)-sulpiride supplementation. Normalized mean and s.e.m. values of three independent triplicate cultures are shown. […] Scale bars, 500 mm.

Regarding `CN1CCc2cccc3c2[C@H]1Cc1ccc(O)c(O)c1-3` [(R)-(−)-Apomorphine (6), (R)-(−)-Apomorphine], the Activity entry in series [1] is on record as “yes”. Besides, the “Z Score” value in [1] (LOPAC library screen, 3 μM, MTT, secondary neurosphere cultures, day 7) is given as −11.27. Also, in series [1] (LOPAC primary screen, neurosphere MTT proliferation, 3 μM, day 7), the Z score is reported as −11.274. The pEC50 was 6.46 in [2] (168 h, normal mouse neurosphere cultures, MTT, 7 days, read-out: Neurosphere EC50); 6.46 in [2] (Mus musculus, read-out: EC 50% Neurosphere, Table 5); 6.46 in [2] (Mus musculus, Table 8, read-out: Neurosphere EC50); 6.77 in series [3] (Mus musculus, ptc1+/− medulloblastoma derived neurospheres, read-out: Medulloblastoma Neurosphere EC50); 6.77 in series [3] (setting [13]); 4.84 in [4] (Homo sapiens). The pEC50 in series [5] (Homo sapiens) was 6.51. In addition, the “Effective in vivo concentrations” value in series [6] was 6 to 7 µM.
As to `CC1=C2C[C@H]3[C@@H](CC=C4C[C@@H](O)CC[C@@]43C)[C@@H]2CC[C@]12O[C@@H]1C[C@H](C)CN[C@H]1[C@H]2C` [Cyclopamine (16), Cyclopamine], in [3] (Mus musculus, read-out: Ptch1+/− neurosphere EC50), the pEC50 is 6.00. Also, the “reported concentration for inhibition of ptc1+/− tumor cell growth in vitro” value in [7] was 5 µM.
Turning to `Nc1ccc(CCN2CCN(c3cccc(C(F)(F)F)c3)CC2)cc1` [PAPP (14), p-aminophenethyl-m-trifluoromethylphenyl piperazine], the Activity result in series [1] is “yes”. In series [1], the “Z Score” value is −10.73. In [1], this molecule came in with a Z score of −10.728. Also, the pEC50 is 7.51 in series [2] (setting [14]); 7.51 in series [2] (normal mouse neurosphere cultures, MTT, 7 days, read-out: Neurosphere EC50); 7.51 in series [2] (read-out: EC 50% Neurosphere, Table 5); 6.77 in series [3] (setting [13]); 6.77 in [3] (ptc1+/− medulloblastoma derived neurospheres, read-out: Medulloblastoma Neurosphere EC50); 7.01 in series [8]. Moreover, the pEC50 is 6.66 in [9], 5.73 in series [4] and 6.51 in series [5]. Moreover, the “expression of the immature NPC marker nestin” value in [10] is “substantially decreased”. For the same molecule, the “secondary neurosphere formation upon re-culture in the absence of drug (replating efficiency)” value in series [11] is given as “reduction in replating efficiency”.
`O=C(Nc1ccccc1)C12CC1/C(=N\O)c1ccccc1O2` (stereo not shown) [PHCCC]: the “medulloblastoma formation in vivo” value in series [12] was “attenuate medulloblastoma formation”.
Take `CC(C)C[C@H]1C(=O)N2CCC[C@H]2[C@]2(O)O[C@](NC(=O)[C@@H]3C=C4c5cccc6[nH]c(Br)c(c56)C[C@H]4N(C)C3)(C(C)C)C(=O)N12` [(+)-Bromocripline (18), (+)-Bromocripline]: the pEC50 in series [2] (setting [14]) is 5.93; with NPC colony formation (with (±)-sulpiride supplementation, read-out: EC50 of inhibition of colony formation, with sulpiride), 5.60; in the series on NPC colony formation (without sulpiride, read-out: EC50 of inhibition of colony formation, without sulpiride) it was 5.92.

Source of the values: patent publication US8058243B2, “Method for treating a brain cancer with ifenprodil” (HSC Research and Development Limited Partnership, priority 2006, dated 2011).
